Data from patent US9410939B2, “Methods for predicting mammalian embryo viability” (Cambridge Enterprise Limited, priority 2011, dated 2016).
Marks after values point to notes of the source that are not given here.

Experiments:
Format in all cases: cell-based
fertilized mouse eggs [1] = assay: Formation and maintenance of the fertilization cone (FC) in inhibitor-treated zygotes
Description: (§1) F1 (C57B16×CBA) mouse females were superovulated and oocytes and zygotes recovered as described previously^44. Parthenogenetic activation was performed by incubating eggs for 4 hrs in M2 medium without Ca^2+/Mg^2+ supplemented with 10 mM SrCl2. Germinal vesicle (GV) oocytes were isolated from ovaries to M2 medium supplemented with 150 μg/ml dibutyryl cyclic AMP (dbcAMP). Epididymal sperm was isolated from F1 males and capacitated in 0.5 ml of fertilization medium with 4 mg/ml BSA^45. Embryos were imaged in KSOM medium as described previously^44. In some experiments prior to imaging embryos were pre-incubated for 20 min with 30 μM BAPTA-AM (to chelate Ca^2+), 5 μg/ml nocodazole (to depolimerize microtubules), 2 μg/ml cytochalasin D (to depolimerize F-actin), 10 μM taxol (to stabilize microtubules) or 100 nM jasplakinolide (to stabilize F-actin) and then transferred to pure KSOM (BAPTA-treated embryos) or to KSOM containing the respective drug (rest of the treated embryos). Embryos treated with ML-7 (to inhibit myosin light chain kinase (MLCK) and therefore myosin II activation^46) were pre-incubated with 25 μM ML-7 for 20 mins and then imaged in a dish containing KSOM with 25 μM ML-7 without a mineral oil overlay which would have absorbed ML-7.
(§2) In most experiments zygotes were imaged in a single plane under an inverted confocal microscope (Zeiss LSM 510 Meta) at 37.5° C. and 5% CO2. DIC images were captured every 10 s using a 633 nm HeNe laser. To measure free Ca^2+ ion concentration, embryos were pre-incubated for 20 min in 5 μM FuraRed-AM (Invitrogen) and FuraRed and DIC images were obtained simultaneously with a 488 nm argon laser. In experiments in which correlations between cytoplasmic movements and developmental potential of the embryos were examined zygotes were imaged in a single plane in transmitted light under standard non-confocal microscopes (Zeiss Axiovert or Deltavision) every 10 s for 2.5 hrs. In experiments in which cytoplasmic movements in the cortex and central parts of zygotes were compared embryos were imaged on the Deltavision microscope in 11 planes every 6 μm, every 10 s for 3 hrs. Intensity of FuraRed fluorescence was measured using ImageJ software. Images were analyzed using custom written software in MATLAB (The Mathworks Inc., Natick, Mass., USA) using algorithms adapted from MatPIV v1.6.1^47. The algorithm was based on that used in PIV, a standard analysis technique used extensively in fluid dynamics^21-24 that involves cross-correlating image sub-regions between sequential pairs of images. In the PIV analysis each image was divided into square interrogation regions and the cross-correlation coefficient distribution was calculated within a larger region in the next image in the sequence. The peak of the cross-correlation coefficient distribution gave the most likely location in the second image of the material in the interrogation region in the first image. This was then used to calculate the displacement vector over the time between images (FIG. 1A). As the displacement of the pattern of contrast of an area of pixels is being measured over many pixels it is possible to accurately measure sub-pixel movements with this technique^22, 24, 48.

[2] = system: in vivo fertilized mouse eggs; assay: Completion of meiosis (2PB extrusion) under Ca2+ chelation and cytoskeleton inhibitors
Description: as §1, §2

fertilized mouse eggs [3] = assay: PIV analysis of cytoplasmic movements (speed-peaks, after-movements, basal speed) in inhibitor-treated zygotes; conditions: for Mean amplitude of after-movements +/- s.d. / Mean amplitude of speed-peaks +/- s.d.: inhibitor-treated zygotes; for decrease in basal speed: vs control zygotes
Description: as §1, §2
(§3) DIC images of fertilized eggs were analyzed using custom written software in MATLAB (The Mathworks Inc., Natick, Mass., USA) using algorithms adapted from MatPIV v1.6.150. The algorithm was based on that used in PIV, a standard analysis technique that involves the use of pattern matching techniques based on cross-correlating sub-regions between sequential pairs of images (see Methods in the main text and FIG. 1a). To calculate a displacement for each analysed interrogation region two subsequent PIV iterations were used. First, the displacement was calculated for a larger interrogation area and then it was used as an estimate of where to centre the search area for the next iteration with a smaller interrogation region. […]

mouse eggs [4] = assay: Cytoplasmic movements in eggs injected with heat-inactivated sperm heads (ICSI) and activated with SrCl2; conditions: for Mean amplitude of after-movements +/- s.d. / Mean amplitude of speed-peaks +/- s.d.: ICSI with the inactivated sperm and SrCl2 activation
Description: as §1, §2
ICSI was carried out as previously described^49 using Leica micromanipulators and Leica inverted microscope. In some experiments heat-inactivated sperm (30 min in 60° C.) was used instead of freshly isolated sperm. The sperm suspension was mixed with M2 medium containing 10% polyvinylpyrrolidone (PVP, Mr=360 kDa). Sperm were delivered into the oocytes' cytosol using a piezo micropipette-driving unit (IntraCel PMAS-CT150, PrimeTech, Japan).

mouse eggs [5] = assay: Cytoplasmic movements and Ca2+ transients in eggs parthenogenetically activated with SrCl2
Description: as §1
as §2, with “The peak of the cross-correlation coefficient distribution gave the most likely location in the second image of the material in the interrogation region in the first image. This was then used to calculate the displacement vector over the time between images (FIG. 1A).” left out
as §3, with “The algorithm was based on that used in PIV, a standard analysis technique that involves the use of pattern matching techniques based on cross-correlating sub-regions between sequential pairs of images (see Methods in the main text and FIG. 1a).” left out

mouse zygotes = assay: Immunostaining of microtubules and actomyosin in treated zygotes
Description: To examine a correlation between cytoplasmic movements and developmental potential of the embryos, 10 μl of capacitated sperm suspension was added to eggs surrounded by cumulus cells and then gametes were co-incubated for 2 hrs. In experiments testing specificity of inhibitors or involving live imaging of actin and myosin, prior to fertilization eggs were treated shortly with acidic Tyrode's solution (pH=2.5) to remove zonas, then were mixed with approximately 1 μl of capacitated sperm suspension and incubated together for 30 min. In both cases fertilization was performed in fertilization medium supplemented with 4 mg/ml BSA^45. Embryos at 2-cell stage were transfer to oviducts of recipient F1 females mated with vasectomised males on 0.5 dpc. They were dissected on 6.5 dpc or 19.5 dpc.
Embryos were fixed in 4% PFA and permeabilised as described before^41. Embryos were scanned using an inverted confocal microscope (Zeiss LSM 510 Meta).
In more detail, embryos were fixed in 4% PFA (30 min, RT or 4° C. overnight), permeabilised with 0.2-0.5% Triton-X100 (30 min, RT) and blocked with 3% BSA or 10% FCS. Subsequently, they were stained with following antibodies and dyes: […]

[6] = Stage 1 prolonged, activation with SrCl2
[7] = treated zygotes, control zygotes 9.0 +/- 1.9

SMILES	Zygotes that extruded 2PB (%) [2]	Zygotes that failed to extrude 2PB (%) [2]	effect on formation and/or maintenance of the FCs (fertilized mouse eggs [1])	effect on speed-peaks (fertilized mouse eggs [3])	Mean amplitude of after-movements +/- s.d. (fertilized mouse eggs [3]; Stage 1) [nm/s]	Mean amplitude of speed-peaks +/- s.d. (fertilized mouse eggs [3]; Stage 1)	Mean amplitude of after-movements +/- s.d. (fertilized mouse eggs [3]; Stage 2)	Mean amplitude of speed-peaks +/- s.d. (fertilized mouse eggs [3]; Stage 2)	Mean amplitude of after-movements +/- s.d. (fertilized mouse eggs [3]; Stage 3)	Mean amplitude of speed-peaks +/- s.d. (fertilized mouse eggs [3]; Stage 3) [nm/s]	Mean basal cytoplasmic speed +/- s.d. (fertilized mouse eggs [3]; [7])	further results
O=S(=O)(c1cccc2c(I)cccc12)N1CCCNCC1 [ML-7]	(69.2) %	(30.8) %										embryos in which FCs were present (fertilized mouse eggs [1]; 10/17 embryos): 58.8%; zygotes in which cytoplasmic speed oscillations were blocked (fertilized mouse eggs [3]; 16/17 zygotes): 94.1%; Mean basal cytoplasmic speed +/- s.d. (fertilized mouse eggs [3]; A - mean basal velocity before M-phase/interphase transition): A. 5.1 +/− 1.3*^,‡ nm/s; Mean basal cytoplasmic speed +/- s.d. (fertilized mouse eggs [3]; B - mean basal velocity after M-phase/interphase transition): B. 8.3 +/− 1.1^†,‡ nm/s
[Cl-].[Cl-].[Sr+2] [SrCl2]												lag of speed-peaks and FC pulsations after peaks of Ca2+ transients (mouse eggs [4]): 10 to 30 s; Ca2+ transients accompanied by speed-peaks (mouse eggs [4]; 48/79 transients, Stage 2, FCs present, n=25): 60.8%; Mean amplitude of after-movements +/- s.d. (mouse eggs [4]; Stage 1): 7.9 ± 3.0 nm/s; Mean amplitude of speed-peaks +/- s.d. (mouse eggs [4]; Stage 1): 8.8 +/− 8.8^|| nm/s; Mean amplitude of after-movements +/- s.d. (mouse eggs [4]; Stage 2): 10.1 +/− 3.5^#,‡‡ nm/s; Mean amplitude of speed-peaks +/- s.d. (mouse eggs [4]; Stage 2): 8.6 +/− 5.4^# nm/s; Mean amplitude of after-movements +/- s.d. (mouse eggs [4]; Stage 3): 13.0 ± 7.0 nm/s; Mean amplitude of speed-peaks +/- s.d. (mouse eggs [4]; Stage 3): 7.1 +/− 4.3^# nm/s; delay of speed peaks with respect to the onset of the Ca2+ transient (mouse eggs [5]): 10 to 30 s; Ca2+ transients accompanied by speed peaks (mouse eggs [5]; 133/444 transients, n=47 eggs): 30%; Ca2+ transients with after-movements present (mouse eggs [5]; 341/444 transients): 76.8%; Mean amplitude of after-movements +/- s.d. (mouse eggs [5]; [6]): 7.7 +/− 2.9^#,** nm/s; Mean amplitude of speed-peaks +/- s.d. (mouse eggs [5]; [6]): 7.4 +/− 4.0^#,||,¶ nm/s
C/C1=C\[C@H](C)C[C@H](C)OC(=O)C[C@H](c2ccc(O)cc2)NC(=O)[C@@H](Cc2c(Br)[nH]c3ccccc23)N(C)C(=O)[C@H](C)NC(=O)[C@@H](C)C1 [Jasplakinolide, jasplakinolide]		(100) %	still permitted formation and/or maintenance of FCs	amplitudes were significantly lower than in controls	5.2 ± 2.1	20.9 ± 10.1 nm/s	4.2 +/− 1.9^|| nm/s	14.5 +/− 8.3^|| nm/s	3.8 +/− 2.8^|| nm/s	10.8 ± 7.6	3.0 +/− 0.4* nm/s	decrease in basal speed (fertilized mouse eggs [3]): ~3 fold; effect on cytoskeleton by staining (mouse zygotes): formation of a thicker cortical layer of actin
CC(=O)OCOC(=O)CN(CC(=O)OCOC(C)=O)c1ccccc1OCCOc1ccccc1N(CC(=O)OCOC(C)=O)CC(=O)OCOC(C)=O [BAPTA, BAPTA-AM]	(66.7) %	(33.3) %		suppressed high amplitude speed-peaks							15.3 +/− 3.3* nm/s	elevation of mean basal cytoplasmic speed (fertilized mouse eggs [3]; more than controls, 21 fertilized eggs): 1.7 fold; effect on cytoskeleton by staining (mouse zygotes): disrupted microtubules
COC(=O)Nc1nc2ccc(C(=O)c3cccs3)cc2[nH]1 [Nocodazole, nocodazole]	(41.7) %	(58.3) %	had no effect upon either formation and/or maintenance of the FCs	neither nocodazole-induced depolymerisation nor taxol-induced stabilisation of microtubules inhibited speed-peaks	11.1 ± 3.9	20.6 ± 11.2 nm/s	16.6 +/− 6.8^¶ nm/s	35.2 +/− 19.3^§ nm/s	21.5 +/− 6.7^|| nm/s	10.4 ± 8.5	11.0 +/− 1.5* nm/s	
C=C1[C@@H](C)[C@H]2[C@H](Cc3ccccc3)NC(=O)[C@]23[C@H](OC(C)=O)/C=C/[C@@](C)(O)C(=O)[C@@H](C)C/C=C/[C@H]3[C@@H]1O [Cytochalasin D, cytochalasin D]		(100) %		dramatically abolished speed-peaks							3.1 +/− 0.6* nm/s	zygotes in which FCs did not form (fertilized mouse eggs [1]; 20/21 zygotes): 95%; zygotes in which unfocused, low-amplitude speed-peaks were recorded (fertilized mouse eggs [3]; 2 out of 21 analyzed zygotes): 9.5%; decrease in basal speed (fertilized mouse eggs [3]): ~3 fold
CC(=O)O[C@H]1C(=O)[C@@]2(C)[C@H]([C@H](OC(=O)c3ccccc3)[C@]3(O)C[C@H](OC(=O)[C@H](O)[C@@H](NC(=O)c4ccccc4)c4ccccc4)C(C)=C1C3(C)C)[C@]1(OC(C)=O)CO[C@@H]1C[C@@H]2O [Taxol, taxol]		(100) %	had no effect upon either formation and/or maintenance of the FCs	neither nocodazole-induced depolymerisation nor taxol-induced stabilisation of microtubules inhibited speed-peaks	7.9 ± 4.3	18.0 +/− 5.0^¶ nm/s	11.1 ± 5.3 nm/s	29.9 +/− 21.0^¶ nm/s	14.3 +/− 5.8^¶ nm/s	11.5 ± 6.5	7.7 +/− 1.7^§ nm/s	
